Source: patent US20230023559A1, “ARYLMETHYLENE HETEROCYCLIC COMPOUNDS AS KV1.3 POTASSIUM SHAKER CHANNEL BLOCKERS” (D. E. Shaw Research, LLC, priority 2019, published 2023)

What was measured:
[1] = biological target: hERG channel (Homo sapiens, UniProt Q12809); assay: hERG electrophysiology, automated whole-cell patch clamp (Patchliner)
Description: CHO-K1 cells stably expressing hERG were grown in Ham's F-12 Medium with Glutamine containing 10% heat-inactivated FBS, 1% Penicillin/Streptomycin, Hygromycin (100 μg/ml) and G418 (100 μg/ml). Cells were grown in culture flasks at 37° C. in a 5% CO2-humidified incubator.
The cells were bathed in an extracellular solution containing 140 mM NaCl, 4 mM KCl, 2 mM CaCl2), 1 mM MgCl2, 5 mM Glucose, 10 mM HEPES; pH adjusted to 7.4 with NaOH; 295-305 mOsm. The internal solution contained 50 mM KCl, 10 mM NaCl, 60 mM KF, 20 mM EGTA, 10 mM HEPES; pH adjusted to 7.2 with KOH; 285 mOsm. All compounds were dissolved in DMSO at 30 mM. Compound stock solutions were freshly diluted with external solution to concentrations of 30 nM, 100 nM, 300 nM, 1 μM, 3 μM, 10 μM, 30 μM and 100 μM. The highest content of DMSO (0.3%) was present in 100 μM.
The voltage protocol (see Table B) was designed to simulate voltage changes during a cardiac action potential with a 300 ms depolarization to +20 mV (analogous to the plateau phase of the cardiac action potential), a repolarization for 300 ms to −50 mV (inducing a tail current) and a final step to the holding potential of −80 mV. The pulse frequency was 0.3 Hz. Control (compound-free) and compound pulse trains for each compound concentration applied contained 70 pulses.
Whole cell current recordings and compound application were enabled by means of an automated patch clamp platform Patchliner (Nanion). EPC 10 patch clamp amplifier (HEKA) along with Patchmaster software (HEKA Elektronik Dr. Schulze GmbH) was used for data acquisition. Data were sampled at 10 kHz without filtering. Increasing compound concentrations were applied consecutively to the same cell without washouts in between.
AUC and PEAK values were obtained with Patchmaster (HEKA Elektronik Dr. Schulze GmbH). To determine IC50 the last single pulse in the pulse train corresponding to a given compound concentration was used. Obtained AUC and PEAK values in the presence of compound were normalized to control values in the absence of compound. Using Origin (OridinLab), IC50 was derived from data fit to Hill equation: Icompound/Icontrol=(100−A)/(1+([compound]/IC50)nH)+A, where IC50 is the concentration at which current inhibition is half-maximal, [compound] is the applied compound concentration, A is the fraction of current that is not blocked and nH is the Hill coefficient.

[2] = biological target: T1, Kv1.3 potassium channel (Homo sapiens, UniProt P22001); assay: Kv1.3 potassium channel blocker activity, automated whole-cell patch clamp (Patchliner); type: cell-based; details: CHO-K1 cells stably expressing Kv1.3; whole cell current inhibition; read-out: Kv1.3_IC50
T1 construct: expressed in transfected cells
Procedure, shortened: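 CHO-K1 cells stably expressing Kv1.3, automated whole-cell patch clamp. Currents evoked by 100 ms steps from −90 mV holding to +40 mV at 0.1 Hz, sampled at 10 kHz unfiltered, P/4 leak subtraction; peak current inhibition measured, compound incubation ≤10 s between pulse trains.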

Sequence of hERG channel (Q12809 whole entry): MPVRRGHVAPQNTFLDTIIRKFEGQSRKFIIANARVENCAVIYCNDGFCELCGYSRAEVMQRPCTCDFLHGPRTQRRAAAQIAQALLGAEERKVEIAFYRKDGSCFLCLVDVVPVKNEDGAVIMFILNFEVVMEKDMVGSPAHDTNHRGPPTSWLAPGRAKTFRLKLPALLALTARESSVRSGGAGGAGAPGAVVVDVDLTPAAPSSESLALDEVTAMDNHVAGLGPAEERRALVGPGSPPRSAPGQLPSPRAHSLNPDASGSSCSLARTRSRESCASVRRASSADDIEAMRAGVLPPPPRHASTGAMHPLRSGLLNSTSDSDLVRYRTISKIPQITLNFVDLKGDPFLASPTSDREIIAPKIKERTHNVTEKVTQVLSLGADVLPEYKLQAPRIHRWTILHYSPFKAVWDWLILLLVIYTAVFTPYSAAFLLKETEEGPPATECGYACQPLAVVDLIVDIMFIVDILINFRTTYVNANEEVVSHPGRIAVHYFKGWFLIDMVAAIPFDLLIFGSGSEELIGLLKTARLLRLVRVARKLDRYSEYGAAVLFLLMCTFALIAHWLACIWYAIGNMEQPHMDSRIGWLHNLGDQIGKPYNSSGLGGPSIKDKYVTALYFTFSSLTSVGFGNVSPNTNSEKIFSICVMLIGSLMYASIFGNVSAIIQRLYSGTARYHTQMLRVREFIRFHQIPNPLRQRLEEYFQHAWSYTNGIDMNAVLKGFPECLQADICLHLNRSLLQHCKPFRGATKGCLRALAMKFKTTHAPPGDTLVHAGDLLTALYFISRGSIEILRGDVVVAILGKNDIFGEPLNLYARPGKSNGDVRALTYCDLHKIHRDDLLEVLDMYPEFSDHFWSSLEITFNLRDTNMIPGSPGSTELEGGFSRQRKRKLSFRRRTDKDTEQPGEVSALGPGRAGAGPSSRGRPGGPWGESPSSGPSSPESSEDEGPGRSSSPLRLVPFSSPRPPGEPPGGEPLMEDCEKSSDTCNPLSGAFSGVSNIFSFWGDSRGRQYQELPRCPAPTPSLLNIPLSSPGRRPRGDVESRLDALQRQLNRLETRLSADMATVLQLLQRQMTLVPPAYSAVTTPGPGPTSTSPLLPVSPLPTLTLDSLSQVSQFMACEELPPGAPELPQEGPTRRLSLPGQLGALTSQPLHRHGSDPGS
T1 sequence (P22001 whole entry): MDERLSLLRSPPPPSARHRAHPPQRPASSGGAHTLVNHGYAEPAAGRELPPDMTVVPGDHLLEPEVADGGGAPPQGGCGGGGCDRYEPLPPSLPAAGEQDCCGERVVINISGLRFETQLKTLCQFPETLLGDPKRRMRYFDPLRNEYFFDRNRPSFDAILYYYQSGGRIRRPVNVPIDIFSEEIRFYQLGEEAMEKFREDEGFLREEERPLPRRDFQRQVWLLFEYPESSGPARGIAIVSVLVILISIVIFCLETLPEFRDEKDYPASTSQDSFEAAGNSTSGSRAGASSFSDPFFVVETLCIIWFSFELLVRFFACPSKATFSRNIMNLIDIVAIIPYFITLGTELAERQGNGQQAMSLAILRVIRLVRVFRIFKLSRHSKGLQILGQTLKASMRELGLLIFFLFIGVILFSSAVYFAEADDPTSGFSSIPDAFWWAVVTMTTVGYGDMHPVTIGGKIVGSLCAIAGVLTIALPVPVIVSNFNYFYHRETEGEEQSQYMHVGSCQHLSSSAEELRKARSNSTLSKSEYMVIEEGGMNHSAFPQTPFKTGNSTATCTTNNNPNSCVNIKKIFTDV

SMILES | IC50 [1] | IC50 [2]
Nc1cc(C(=O)N2CCC([C@@H](N)c3cc(Cl)c(Cl)cc3O)CC2)ccn1 [Compound 301, 2-[(R)-amino[1-(2-aminopyridine-4-carbonyl)piperidin-4-yl]methyl]-4,5-dichlorophenol trifluoroacetic acid] | > 30 µM | < 0.5 µM
N[C@@H](c1cc(Cl)c(Cl)cc1O)C1CCN(c2ccc(O)nc2)CC1 [Compound 302, (R)-5-(4-(amino(4,5-dichloro-2-hydroxyphenyl)methyl)piperidin-1-yl)pyridin-2-ol] | > 30 µM | < 10 µM
N[C@@H](c1cc(Cl)c(Cl)cc1O)C1CCN(C(=O)C(CO)CO)CC1 [Compound 303, 1-[4-[(R)-amino(4,5-dichloro-2-hydroxyphenyl)methyl]piperidin-1-yl]-3-hydroxy-2-(hydroxymethyl) propan-1-one trifluoroacetic acid] | > 30 µM | < 0.5 µM
C[C@H](CO)C(=O)N1CCC([C@@H](N)c2cc(Cl)c(Cl)cc2O)CC1 [Compound 304, (2R)-1-[4-[(R)-amino(4,5-dichloro-2-hydroxyphenyl)methyl]piperidin-1-yl]-3-hydroxy-2-methylpropan-1-one] | > 30 µM | < 0.5 µM
N[C@@H](c1cc(Cl)c(Cl)cc1O)C1CCN(C(=O)c2ccc(=O)[nH]c2)CC1 [Compound 305, 5-[4-[(R)-amino(4,5-dichloro-2-hydroxyphenyl)methyl]piperidine-1-carbonyl]-1,2-dihydropyridin-2-one trifluoroacetic acid] | > 30 µM | < 0.5 µM
CN1C(=O)CC[C@H]1C(=O)N1CCC([C@@H](N)c2cc(Cl)c(Cl)cc2O)CC1 [Compound 306, (S)-5-(4-((R)-amino(4,5-dichloro-2-hydroxyphenyl)methyl)piperidine-1-carbonyl)-1-methylpyrrolidin-2-one trifluoroacetic acid] | > 30 µM | < 0.5 µM
N[C@@H](c1cc(Cl)c(Br)cc1O)C1CCN(C(=O)[C@H](O)CO)CC1 [Compound 317, (2R)-1-[4-[(R)-amino(4-bromo-5-chloro-2-hydroxyphenyl)methyl]piperidin-1-yl]-2,3-dihydroxypropan-1-one Trifluoroacetic Acid] | > 30 µM | < 0.5 µM
N[C@@H](c1cc(Cl)c(Cl)cc1O)C1CCN(C(=O)C2CC3(CC(O)C3)C2)CC1 (stereo partly drawn) [Compound 320, 6-[4-[(R)-amino(4,5-dichloro-2-hydroxyphenyl)methyl]piperidine-1-carbonyl]spiro [3.3]heptan-2-ol trifluoroacetic acid] | < 30 µM | < 10 µM
Cc1cc(O)c([C@H](N)C2CCN(C(=O)c3ccc4c(c3)CNC4=O)CC2)cc1Cl [Compound 324, 5-[4-[(R)-amino(5-chloro-2-hydroxy-4-methylphenyl)methyl]piperidine-1-carbonyl]-2,3-dihydroisoindol-1-one trifluoroacetic acid] | > 30 µM | < 0.5 µM
C[C@H]1C[C@H]([C@@H](N)c2cc(Cl)c(Cl)cc2O)CCN1C(=O)[C@H](O)CO [Compound 326, (2R)-1-[(2S,4R)-4-[(R)-amino(4,5-dichloro-2-hydroxyphenyl)methyl]-2-methylpiperidin-1-yl]-2,3-dihydroxypropan-1-one Trifluoroacetic Acid] | > 30 µM | < 0.5 µM
C[C@@H]1C[C@@H]([C@@H](N)c2cc(Cl)c(Cl)cc2O)CCN1C(=O)[C@H](O)CO [Compound 327, (2R)-1-[(2R,4S)-4-[(R)-amino(4,5-dichloro-2-hydroxyphenyl)methyl]-2-methylpiperidin-1-yl]-2,3-dihydroxypropan-1-one Trifluoroacetic Acid] | > 30 µM | < 10 µM
NC(c1c(O)cc(Cl)c(Cl)c1F)C1CCN(C(=O)[C@H](O)CO)CC1 (stereo partly drawn) [Compound 328, (2R)-1-[4-[amino(3,4-dichloro-2-fluoro-6-hydroxyphenyl)methyl]piperidin-1-yl]-2,3-dihydroxypropan-1-one Trifluoroacetic Acid] | > 30 µM | < 0.5 µM
Cc1cc(O)c([C@H](N)C2CCN(C(=O)[C@@H]3OCC[C@@H]3O)CC2)cc1Cl [Compound 335, (2R,3S)-2-[4-[(R)-amino(5-chloro-2-hydroxy-4-methylphenyl)methyl]piperidine-1-carbonyl]oxolan-3-ol trifluoroacetic acid] | > 30 µM | < 0.5 µM
